# Experimental data from US20200009163A1, “POLYPHOSPHATES AS INHIBITORS OF CALCIUM CRYSTALLIZATION” (priority 2017, published 2020).
# Key:
# [1] = Bulk calcium oxalate crystallization, optical microscope images and crystal frequency; details: for calcium oxalate crystals observed (optical microscope): control crystals approximately 25-50 μm along c-axis
# Procedure: (§1) FIG. 4A depicts optical microscope images showing results of calcium oxalate crystallization from a control solution and solutions including LTPP Na5P3O10 at concentrations of 5 μM and 15 μM. FIG. 4B depicts effects of Na5P3O10 concentrations on calcium oxalate crystal frequency. […] Crystals formed from the control solution were approximately 25-50 μm in size as measured along the c-axis, which is the longest dimension.
# as §1, with “FIG. 5A” for “FIG. 4A”, “including HMP (NaPO3)6” for “including LTPP Na5P3O10”, “of 0.3” for “of 5”, “and 0.7” for “and 15”, “FIG. 5B” for “FIG. 4B”, “of (NaPO3)6” for “of Na5P3O10”
# FIG. 6 depicts optical microscope images showing results of calcium oxalate crystallization during bulk studies at different concentrations of LTPP. The leftmost image is a representative control crystal.
# [2] = ISE (ion selective electrode) measurement of inhibition of COM crystallization from aqueous solution; details: FIG. 3
# Excerpt: FIG. 3 depicts experimental results obtained using an example of a LTPP compound (Na5P3O10) and an example of a HMP compound ((NaPO3)6) to inhibit crystallization of […] from aqueous solution. Results for a citrate compound (Na3C6H5O7), which is commonly used in the treatment of kidney stones, is presented for purposes of comparison. In FIG. 3, the x-axis represents a measure of concentration (micromolar (μM) concentration on a logarithmic scale) of the inhibitor present in the solution. The y-axis represents percent inhibition (% reduction in the rate of crystallization) of COM crystallization as compared to a control solution having no inhibitor compounds therein. The effect of the inhibitors on COM growth was estimated using ISE (ion selective electrode) measurements. This measurement technique enables quantification of the extent of inhibition on calcium crystal growth as a function of inhibitor concentration. More specifically, ISE measures free calcium concentration in solution as a function of time to measure the rate of crystallization in the absence and presence of inhibitor. This technique can be used to measure the effectiveness of the polyphosphates and polyphosphate derivatives at inhibiting or modifying calcium crystal growth. The values of “% inhibition” that were obtained by this technique, and presented in FIG. 3 for the different combinations of inhibitor type and concentration, reflect rates of crystallization that have been normalized with respect to the rate of crystallization for a control solution (e.g., inhibitor concentration of zero). The % inhibition refers to the averages of at least 3 separate experiments. The solutions tested were aqueous solutions of calcium chloride (CaCl2)), sodium oxalate (Na2C2O4), and sodium chloride (NaCl). The tested solutions further included the inhibitor/modifier compound at the stated concentration level.
compound,measurement,setting,value
(NaPO3)6 [HMP],calcium oxalate crystals observed (optical microscope),"[1]; 0.7 μM inhibitor, FIG. 5A",Very small crystals
same,calcium oxalate crystal frequency,"[1]; higher HMP solution concentrations (above 0.7 μM), FIG. 5B",no definitive crystals being observed
same,percent inhibition (% reduction in the rate of crystallization) of COM crystallization,"[2]; inhibitor concentration of less than about 1 μM, vs control solution without inhibitor",approximately 100%
"O=C(O)CC(O)(CC(=O)O)C(=O)O [citrate, Na3C6H5O7, reference compound]",percent inhibition (% reduction in the rate of crystallization) of COM crystallization,"[2]; inhibitor concentration of around 320 μM, maximum reached even at much higher concentrations",about 60%
Na5P3O10 [LTPP],crystal morphology (habit) of calcium oxalate crystals,"[1]; 5 μM and 15 μM inhibitor vs control crystal, FIG. 6",morphology of the crystals change with increasing inhibitor concentration
same,calcium oxalate crystals observed (optical microscope),"[1]; 15 μM inhibitor, FIG. 4A",very small crystals
same,calcium oxalate crystal frequency,"[1]; higher LTPP solution concentrations (above 15 μM), FIG. 4B",no definitive crystals being observed
same,percent inhibition (% reduction in the rate of crystallization) of COM crystallization,"[2]; inhibitor concentration range of about 5 μM to about 125 μM, vs control solution without inhibitor",30-100%
